Measured values reported in ChEMBL document CHEMBL4049445.
Calls of active or inactive are those of the source. The calls are words filed in the database; no cut-off is given here.

The compounds below were run on Influenza A virus (assay: Antiviral activity against Influenza A virus A/PR/8/34 expressing amantadine-resistant M2 proton channel S31N mutant infected in MDCK cells). Conditions: A/Puerto Rico/8/1934(H1N1).
Format: functional, cell-based

Compound | Activity
CN1CCC(CC2C3CC4CC(C3)CC2C4)CC1 (configuration not stated) | inactive
C1CC(CC2C3CC4CC(C3)CC2C4)CCN1 (configuration not stated) | inactive
CCN1CCC(C2C3CC4CC(C3)CC2C4)CC1 (configuration not stated) | inactive
C1CCC(C23CC4CC(CC(C4)C2)C3)NC1 (configuration not stated) | inactive
N=C(N)N1CCC(C23CC4CC(CC(C4)C2)C3)CC1 | inactive
C1CC(C2C3CC4CC(C3)CC2C4)CCN1 (configuration not stated) | inactive
N=C(N)N1CCC(C=C2C3CC4CC(C3)CC2C4)CC1 | inactive
C(=C1C2CC3CC(C2)CC1C3)C1CCNCC1 | inactive
OC1(C2CCNCC2)C2CC3CC(C2)CC1C3 (configuration not stated) | inactive
N=C(N)N1CCC(CC2C3CC4CC(C3)CC2C4)CC1 (configuration not stated) | inactive
C1CC(C23CC4CC(CC(C4)C2)C3)CCN1 | inactive
OC1(CC2CCNCC2)C2CC3CC(C2)CC1C3 (configuration not stated) | inactive
